Assay results taken from US20230167094A1, “H4 ANTAGONIST COMPOUNDS” (Heptares Therapeutics Limited, priority 2020, published 2023).

Key:
human H4 receptor = molecular target: T1, human H4 receptor (Homo sapiens, UniProt Q9H3N8); experiment: H4 Antagonist Functional Dynamic Mass Redistribution Assay; format: cell-based; details: HEKf cells expressing human H4 receptor, antagonist mode vs histamine EC80, pKb by Cheng-Prusoff; for Kb: read-out: Human H4 DMR fpKb (converted)
T1 construct: expressed in transfected cells; host or cells: HEKf cells infected with baculovirus
Experimental: H4 Antagonist Functional Dynamic Mass Redistribution Assay
HEKf cells were infected using baculovirus expressing the human H4 receptor, plated into fibronectin-coated EPIC plates at a density of 10,000 cells/well and incubated overnight at 37° C. The medium on cells was changed to […] HBSS with 20 mM HEPES per well and 30 nL DMSO were added per well by LabCyte ECHO acoustic dispensing. Following 2 h equilibration at room temperature, 30 nL of H4 ligands prepared in DMSO were stamped by LabCyte ECHO acoustic dispensing into seeded EPIC plates and cellular dynamic mass redistribution was monitored using a Corning EPIC plate reader. Following 45 min measurement, 30 nL/well of histamine EC80 was added and monitored to obtain antagonist assay data. Maximum baseline-corrected responses in pm were used to generate concentration response curves. EC50 values were generated using a 4-parameter logistical fit equation to quantify agonist potencies. Functional antagonist affinity values were generated using the Cheng-Prusoff equation to calculate a pKb value using the antagonist assay data.

hERG = hERG (Homo sapiens, UniProt Q12809); experiment: hERG assay (QPatch automated patch clamp, CHO cells); format: cell-based; details: CHO cells stably expressing hERG, 1, 3, 10 and 30 μM, tail current, room temperature; for IC50: read-out: hERG pIC50 (converted)
Experimental: All experiments were performed on the QPatch automated patch clamp platform.
Series resistance (4-15 MΩ) was compensated by >80%.

Chain of hERG (Q12809 whole entry): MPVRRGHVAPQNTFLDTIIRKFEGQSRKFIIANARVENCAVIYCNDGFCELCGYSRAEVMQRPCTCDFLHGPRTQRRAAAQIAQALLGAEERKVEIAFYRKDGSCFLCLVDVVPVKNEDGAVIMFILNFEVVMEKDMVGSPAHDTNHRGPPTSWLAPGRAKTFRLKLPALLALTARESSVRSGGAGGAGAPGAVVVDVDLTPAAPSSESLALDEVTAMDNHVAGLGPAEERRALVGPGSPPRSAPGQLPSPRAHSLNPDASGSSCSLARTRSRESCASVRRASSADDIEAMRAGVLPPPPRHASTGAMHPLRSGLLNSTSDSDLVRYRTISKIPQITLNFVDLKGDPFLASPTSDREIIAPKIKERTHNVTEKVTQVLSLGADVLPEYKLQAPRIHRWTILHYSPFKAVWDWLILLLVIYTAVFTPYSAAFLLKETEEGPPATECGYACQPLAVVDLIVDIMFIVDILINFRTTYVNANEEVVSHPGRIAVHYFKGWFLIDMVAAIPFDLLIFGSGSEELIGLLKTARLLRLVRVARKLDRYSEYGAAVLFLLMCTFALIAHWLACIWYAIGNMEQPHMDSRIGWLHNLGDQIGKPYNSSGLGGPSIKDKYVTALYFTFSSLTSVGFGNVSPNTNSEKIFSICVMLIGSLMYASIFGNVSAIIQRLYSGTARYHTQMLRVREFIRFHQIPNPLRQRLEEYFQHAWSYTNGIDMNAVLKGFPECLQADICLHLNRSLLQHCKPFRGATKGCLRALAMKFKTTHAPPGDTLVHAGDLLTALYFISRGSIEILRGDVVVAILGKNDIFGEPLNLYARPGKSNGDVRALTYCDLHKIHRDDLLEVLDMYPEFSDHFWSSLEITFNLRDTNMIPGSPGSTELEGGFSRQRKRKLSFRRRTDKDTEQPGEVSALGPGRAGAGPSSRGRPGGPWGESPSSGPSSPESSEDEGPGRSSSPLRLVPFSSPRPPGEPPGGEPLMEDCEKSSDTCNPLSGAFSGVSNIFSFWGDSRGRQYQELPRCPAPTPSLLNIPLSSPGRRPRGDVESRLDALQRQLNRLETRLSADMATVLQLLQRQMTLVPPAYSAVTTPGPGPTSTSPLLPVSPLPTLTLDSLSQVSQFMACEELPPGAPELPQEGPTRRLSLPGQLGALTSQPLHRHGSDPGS
T1 sequence (Q9H3N8 whole entry): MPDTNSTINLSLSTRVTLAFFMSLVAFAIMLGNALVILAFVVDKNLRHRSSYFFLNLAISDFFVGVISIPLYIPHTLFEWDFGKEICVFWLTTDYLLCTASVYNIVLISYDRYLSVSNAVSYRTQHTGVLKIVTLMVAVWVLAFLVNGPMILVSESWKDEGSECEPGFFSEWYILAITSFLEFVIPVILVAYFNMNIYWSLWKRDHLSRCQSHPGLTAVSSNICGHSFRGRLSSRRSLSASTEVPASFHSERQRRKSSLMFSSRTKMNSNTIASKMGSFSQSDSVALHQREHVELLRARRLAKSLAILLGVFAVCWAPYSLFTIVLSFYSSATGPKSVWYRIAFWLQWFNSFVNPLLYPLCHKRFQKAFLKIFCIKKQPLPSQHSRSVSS

CC(C)c1cc(N2CC[C@@H](N)C2)nc(N)n1 [JNJ-39758979, reference compound]
Human H4 DMR fpKb (human H4 receptor): 8.5
hERG pIC50 (hERG): ≤4.0

CN[C@@H]1CCN(c2cc(NCC3CC3)nc(N)n2)C1 [PF-3893787, reference compound]
Kb (human H4 receptor): 0.794 nM
IC50 (hERG): 7940 nM

Cc1cc(C)c2nc(-c3cnc(NCCCC4CCN(C)CC4)nc3C)[nH]c2c1 [Toreforant, reference compound]
Kb (human H4 receptor): 12.6 nM
IC50 (hERG): 3160 nM
